Measurements reported in patent US9204640B2, “2-acyloxy-pyrrolin-4-ones” (BAYER INTELLECTUAL PROPERTY GMBH, priority 2011, dated 2015).

Columns and labels:
Type in all cases: in vivo
Setaria viridis = assay: Herbicidal post-emergence action, SETVI; settings: Setaria viridis, post-emergence
Protocol: (§1) 2. Herbicidal Post-Emergence Action
(§2) • Seeds of monocotyledonous and dicotyledonous weed and crop plants are placed in sandy loam in wood-fiber pots, covered with soil and cultivated in a greenhouse under good growth conditions. 2 to 3 weeks after sowing, the test plants are treated at the one-leaf stage. The test compounds, formulated as wettable powders (WP), are then, with a water application rate of 600 l/ha (converted), with 0.2% of wetting agent added, sprayed at various dosages onto the green parts of the plants. After the test plants have been kept in the greenhouse under optimum growth conditions for about 3 weeks, the activity of the preparations is rated visually in comparison to untreated controls (herbicidal activity in percent: 100% activity=the plants have died, 0% activity=like control plants). • In addition to the compounds mentioned above, the following compounds show an activity of 90-100% against Alopecurus myosuroides, Avena fatua, Digitaria sanguinalis, Echinocloa crus-galli, Lolium multiflorum, Setaria viridis and Sorghum halapense when applied by the post-emergence method at 320 g/ha: I-a-2, I-a-4, I-a-5, I-a-7, I-a-9, I-a-10, I-a-11, I-a-12, I-a-13, I-a-15. • In addition to the compounds mentioned above, the following compounds show an activity of 90-100% against Alopecurus myosuroides, Avena fatua, Echinocloa crus-galli, Lolium multiflorum and Setaria viridis when applied by the post-emergence method at 80 g/ha: I-a-1, I-b-2.
(§3) • Seeds of monocotyledonous and dicotyledonous weed plants and crop plants are placed in wood-fiber pots in sandy loam and covered with soil. The test compounds, formulated in the form of wettable powders (WP) or emulsion concentrates (EC), are then, as an aqueous suspension with a water application rate of 600-800 l/ha (converted), with 0.1-0.2% of wetting agent added, applied at various dosages to the surface of the covering soil. • After the treatment, the pots are placed in a greenhouse and kept under good growth conditions for the test plants. […] Herbicidal Post-Emergence Action (Post) • Seeds of monocotyledonous and dicotyledonous weed and crop plants are placed in sandy loam in wood-fiber pots, covered with soil and cultivated in a greenhouse under good growth conditions. 2-3 weeks (stages 10-13 according to the BBCH scale) after sowing, the test plants are treated at a height of 5-10 cm. The test compounds, formulated as wettable powders (WP) or emulsion concentrates (EC), are then, with a water application rate of 600-800 l/ha (converted), with 0.1-0.2% of wetting agent added, sprayed at various dosages onto the green parts of the plants.
(§4) AVEFA: Avena fatua LOLMU: Lolium multiflorum SETVI: Setaria viridis CHEAL: Chenopodium album VIOTR: Viola tricolor VERPE: Veronica persica ORYSA: Oryza sativa TRZAS: Triticum aestivum ZEAMX: Zea mays ALOMY: Alopecurus myosuroides DIGSA: Digitaria sanguinalis ECHCG: Echinocloa crus-galli SORHA: Sorghum halepense AVESA: Avena sativa AMARE: Amaranthus retroflexus SINAL: Sinapis alba STEME: Stellaria media

Digitaria sanguinalis = assay: Herbicidal post-emergence action, DIGSA; settings: Digitaria sanguinalis, post-emergence, 80 g/ha
Protocol: as §1, §2, §3, §4

Avena fatua = assay: Herbicidal post-emergence action, AVEFA; settings: Avena fatua, post-emergence, 80 g/ha
Protocol: as §1, §2, §3, §4

Triticum aestivum = assay: Herbicidal post-emergence action, TRZAS; settings: Triticum aestivum, post-emergence, 80 g/ha
Excerpt: as §3, §4

Oryza sativa = assay: Herbicidal post-emergence action, ORYSA; settings: Oryza sativa, post-emergence, 80 g/ha
Excerpt: as §3, §4

Zea mays = assay: Herbicidal post-emergence action, ZEAMX; settings: Zea mays, post-emergence, 80 g/ha
Excerpt: as §3, §4

Veronica persica = assay: Herbicidal post-emergence action, VERPE; settings: Veronica persica, post-emergence
Excerpt: as §3, with “the plants. […]” for “the plants.”

Sorghum halepense = assay: Herbicidal post-emergence action, SORHA; settings: Sorghum halepense, post-emergence
Protocol: as §1, §2, §3, §4

Lolium multiflorum = assay: Herbicidal post-emergence action, LOLMU; settings: Lolium multiflorum, post-emergence
Protocol: as §1, §2, §3, §4

Echinocloa crus-galli = assay: Herbicidal post-emergence action, ECHCG; settings: Echinochloa crus-galli, post-emergence, 80 g/ha
Protocol: as §1, §2, §3, §4

Alopecurus myosuroides = assay: Herbicidal post-emergence action, ALOMY; settings: Alopecurus myosuroides, post-emergence, 80 g/ha
Protocol: as §1, §2, §3, §4

Stellaria media = assay: Herbicidal post-emergence action, STEME; settings: Stellaria media, post-emergence
Excerpt: as §3, with “the plants. […]” for “the plants.”

Amaranthus retroflexus = assay: Herbicidal post-emergence action, AMARE; settings: Amaranthus retroflexus, post-emergence
Excerpt: as §3, with “the plants. […]” for “the plants.”

Avena sativa = assay: Herbicidal post-emergence action, AVESA; settings: Avena sativa, post-emergence
Excerpt: as §3, with “the plants. […]” for “the plants.”

Sinapis alba = assay: Herbicidal post-emergence action, SINAL; settings: Sinapis alba, post-emergence
Excerpt: as §3, with “the plants. […]” for “the plants.”

Spodoptera frugiperda = Spodoptera frugiperda test (SPODFR spray treatment); settings: Spodoptera frugiperda, 168 h; 500 g/ha; 7dat
Protocol: Spodoptera Frugiperda Test (SPODFR Spray Treatment) [table] To produce a suitable preparation of active compound, 1 part by weight of active compound is mixed with the stated amount of solvent and emulsifier, and the concentrate is diluted with emulsifier-containing water to the desired concentration. Discs of corn leaves (Zea mays) are sprayed with an active compound preparation of the desired concentration and, after drying, populated with caterpillars of the armyworm (Spodoptera frugiperda). After 7 days, the effect in % is determined. 100% means that all caterpillars have been killed; 0% means that none of the caterpillars have been killed. Spodoptera Frugiperda Test (SPODFR Spray Treatment) To produce a suitable preparation of active compound, 1 part by weight of active compound is mixed with the stated amount of solvent and emulsifier, and the concentrate is diluted with emulsifier-containing water to the desired concentration. Discs of corn leaves (Zea mays) are sprayed with an active compound preparation of the desired concentration and, after drying, populated with caterpillars of the armyworm (Spodoptera frugiperda). After the desired period of time, the activity in % is determined. 100% means that all caterpillars have been killed; 0% means that none of the caterpillars have been killed.

Bemisia tabaci = Bemisia tabaci spray test (BEMITA); settings: Bemisia tabaci, 168 h, 7dat
Protocol: Bemisia Tabaci-Spray Test ([…]) To produce a suitable preparation of active compound, 1 part by weight of active compound is mixed with the stated amount of solvent and emulsifier, and the concentrate is diluted with emulsifier-containing water to the desired concentration. Discs of cotton leaves (Gossypium hirsutum) which are infested by all stages of the whitefly (Bemisia tabaci) are sprayed with an active compound preparation of the desired concentration. After the desired period of time, the activity in % is determined. 100% means that all the whiteflies have been killed; 0% means that none of the whiteflies have been killed.

Tetranychus urticae = assay: Tetranychus test (TETRUR spray treatment; OP-resistant in Example 10); settings: Tetranychus urticae, 120 h; 20 g/ha; 5dat; OP-resistant
Protocol: Tetranychus Test (TETRUR Spray Treatment)
To produce a suitable preparation of active compound, 1 part by weight of active compound is mixed with the stated amount of solvent and emulsifier, and the concentrate is diluted with emulsifier-containing water to the desired concentration. Discs of bean leaves (Phaseolus vulgaris) which are infested by all stages of the greenhouse red spider mite (Tetranychus urticae) are sprayed with an active compound preparation of the desired concentration.
After 5 days, the effect in % is determined. 100% means that all of the spider mites have been killed; 0% means that none of the spider mites have been killed.
Tetranychus Test, OP-Resistant (TETRUR Spray Treatment)
To produce a suitable preparation of active compound, 1 part by weight of active compound is mixed with the stated amount of solvent and emulsifier, and the concentrate is diluted with emulsifier-containing water to the desired concentration.
Discs of bean leaves (Phaseolus vulgaris) which are infested by all stages of the greenhouse red spider mite (Tetranychus urticae) are sprayed with an active compound preparation of the desired concentration.
After the desired period of time, the activity in % is determined. 100% means that all of the spider mites have been killed; 0% means that none of the spider mites have been killed.

Liriomyza trifolii = Liriomyza trifolii spray test (LIRITR); settings: Liriomyza trifolii, 168 h, 7dat, read-out: % Activity LIRITRI
Protocol: Liriomyza Trifolii-Spray Test ([…]) To produce a suitable preparation of active compound, 1 part by weight of active compound is mixed with the stated amount of solvent and emulsifier, and the concentrate is diluted with emulsifier-containing water to the desired concentration. If the addition of ammonium salts or/and penetrants is required, these are in each case added in a concentration of 1000 ppm to the solution of the preparations. Discs of bean leaves (Phaseolus vulgaris) which are infested by all stages of the leaf-mining fly (Liriomyza trifolii) are sprayed with an active compound preparation of the desired concentration. After the desired period of time, the activity in % is determined. 100% means that all of the leaf-mining flies have been killed; 0% means that none of the leaf-mining flies have been killed.

## CCc1cccc(Cl)c1C1=C(OC(=O)C(C)(C)C)C2(CCC(C)CC2)NC1=O (stereo not drawn) [I-b-12 known from WO 04/065366]
Setaria viridis; 80 g/ha
  inhibition at 80 g/ha: 30%
Digitaria sanguinalis
  inhibition at 80 g/ha: 30%
Avena fatua
  inhibition at 80 g/ha: 0%
Triticum aestivum
  inhibition at 80 g/ha: 0%
Oryza sativa
  inhibition at 80 g/ha: 0%
Zea mays
  inhibition at 80 g/ha: 0%
Veronica persica
  inhibition at 80 g/ha: 0%
Sorghum halepense
  inhibition at 80 g/ha: 0%
Lolium multiflorum; 80 g/ha
  inhibition at 80 g/ha: 0%
Echinocloa crus-galli
  inhibition at 80 g/ha: 40%
Alopecurus myosuroides
  inhibition at 80 g/ha: 0%

## CCc1cc(Cl)cc(OC)c1C1=C(OC(=O)C(C)(C)C)C2(CCC(OC)CC2)NC1=O (stereo not drawn)
Setaria viridis; 320 g/ha
  inhibition at 320 g/ha: 0%
Stellaria media
  inhibition at 320 g/ha: 0%
Amaranthus retroflexus
  inhibition at 320 g/ha: 0%
Lolium multiflorum; 320 g/ha
  inhibition at 320 g/ha: 0%
Avena sativa
  inhibition at 320 g/ha: 0%
Sinapis alba
  inhibition at 320 g/ha: 0%

## CCOC(=O)OC1=C(c2c(C)cc(C)cc2C)C(=O)NC12CCC(COC)CC2 (stereo not drawn) [I-1-c-16 known from WO 07/048545]
Spodoptera frugiperda
  inhibition at 500 g/ha: 67%
Bemisia tabaci
  inhibition at 20 g/ha: 27%
Tetranychus urticae
  inhibition at 20 g/ha: 0%
Liriomyza trifolii
  inhibition at 20 g/ha: 0%
